Legend:
Plasmodium falciparum [1] = assay: Antimalarial activity against Plasmodium falciparum W2; assay type: functional, organism-based
Plasmodium falciparum [2] = assay: Antimalarial activity against Plasmodium falciparum D6; assay type: functional, organism-based
Plasmodium falciparum [3] = assay: Antimalarial activity against Plasmodium falciparum TM91C235; assay type: functional, organism-based
NCI = assay: Growth inhibition of human NCI DTP 60 cells; assay type: functional
LOX IMVI = assay: Antiproliferative activity against human LOX IMVI cells after 48 hrs; assay type: functional
DU-145 = assay: Antiproliferative activity against human DU145 cells after 48 hrs; assay type: functional; settings: DU-145, 48 h
CAKI-1 = assay: Antiproliferative activity against human CAKI1 cells after 48 hrs; assay type: functional; settings: CAKI-1, 48 h; for CC50: read-out: LC50 (the source's name)
HOP-92 = assay: Antiproliferative activity against human HOP92 cells after 48 hrs; assay type: functional; settings: Homo sapiens, HOP-92, 48 h
UO-31 = assay: Antiproliferative activity against human UO31 cells after 48 hrs; assay type: functional; settings: Homo sapiens, UO-31, 48 h
786-0 = assay: Antiproliferative activity against human 786-0 cells after 48 hrs; assay type: functional
HL-60 = assay: Antiproliferative activity against human HL60 cells after 48 hrs; assay type: functional
CCRF-CEM = assay: Antiproliferative activity against human CCRF-CEM cells after 48 hrs; assay type: functional
ACHN = assay: Antiproliferative activity against human ACHN cells after 48 hrs; assay type: functional
[4] = Plasmodium falciparum, TM91C235

| SMILES | IC50 (Plasmodium falciparum [1]; Plasmodium falciparum, W2) [nM] | IC90 (Plasmodium falciparum [1]; Plasmodium falciparum, W2) [nM] | IC50 (Plasmodium falciparum [2]; Plasmodium falciparum, D6) [nM] | IC90 (Plasmodium falciparum [2]; Plasmodium falciparum, D6) [nM] | IC50 (Plasmodium falciparum [3]; [4]) [nM] | IC90 (Plasmodium falciparum [3]; [4]) [nM] | IC90 (Plasmodium falciparum [2]) [nM] | IC50 (Plasmodium falciparum [1]) [nM] | IC90 (Plasmodium falciparum [1]) [nM] | IC50 (Plasmodium falciparum [2]) [nM] | IC50 (Plasmodium falciparum [3]) [nM] | IC90 (Plasmodium falciparum [3]) [nM] | other results |
| --- | --- | --- | --- | --- | --- | --- | --- | --- | --- | --- | --- | --- | --- |
| COC(=O)CC[C@@H](C)[C@H]1CC[C@H]2[C@@H]3CC[C@@H]4CC5(CC[C@]4(C)[C@H]3C[C@H](OC(C)=O)[C@]12C)OOC1(CCCCC1)OO5 | 112 | 170 | 201 | 258 |  |  |  |  |  |  |  |  |  |
| CCCN(CCC)C(=O)CC[C@@H](C)[C@H]1CC[C@H]2[C@@H]3CC[C@@H]4CC5(CC[C@]4(C)[C@H]3C[C@H](OC(C)=O)[C@]12C)OOC1(CCCCC1)OO5 | 150 | 169 | 179 | 197 | 169 | 203 |  |  |  |  |  |  |  |
| CC(=O)O[C@H]1C[C@H]2[C@@H](CC[C@@H]3CC4(CC[C@@]32C)OOC2(CCCCC2)OO4)[C@@H]2CC[C@H]([C@H](C)CCC(N)=O)[C@@]12C | 19.1 | 35.6 | 32.7 | 50.4 | 40.9 | 76.7 |  |  |  |  |  |  |  |
| CC(=O)O[C@H]1C[C@H]2[C@@H](CC[C@@H]3CC4(CC[C@@]32C)OOC2(CCCCC2)OO4)[C@@H]2CC[C@H]([C@H](C)CCC(=O)N3CCCCC3)[C@@]12C | 55.5 | 78.6 | 106 | 131 | 84.7 | 125 |  |  |  |  |  |  |  |
| CC(=O)O[C@H]1C[C@H]2[C@@H]([C@H](OC(C)=O)C[C@@H]3CC4(CC[C@@]32C)OOC2(CCCCC2)OO4)[C@@H]2CC[C@H]([C@H](C)CCC(=O)Nc3ccccc3)[C@@]12C | 11.2 | 25.9 | 6.7 | 11.7 | 10.3 | 27.8 |  |  |  |  |  |  |  |
| CC(=O)O[C@H]1C[C@H]2[C@@H](CC[C@@H]3CC4(CC[C@@]32C)OOC2(CCCCC2)OO4)[C@@H]2CC[C@H]([C@H](C)CCC(=O)NN)[C@@]12C | 347 |  | 347 |  | 347 |  |  |  |  |  |  |  |  |
| CC(=O)O[C@H]1C[C@H]2[C@@H](CC[C@@H]3CC4(CC[C@@]32C)OOC2(CCCCC2)OO4)[C@@H]2CC[C@H]([C@H](C)CCC(=O)O)[C@@]12C | 93.9 | 178 | 107 | 310 |  |  |  |  |  |  |  |  |  |
| CC(=O)O[C@H]1C[C@H]2[C@@H](CC[C@@H]3CC4(CC[C@@]32C)OOC2(CCCCC2)OO4)[C@@H]2CC[C@H]([C@H](C)CCC(=O)Nc3ccccc3)[C@@]12C | 81.6 | 195 | 133 | 195 |  |  |  |  |  |  |  |  |  |
| COC(=O)CC[C@@H](C)[C@H]1CC[C@H]2[C@@H]3CC[C@@H]4CC5(CC[C@]4(C)[C@H]3C[C@H](OC(C)=O)[C@]12C)OOC1(CCC(C)CC1)OO5 (stereo in doubt; 3b) | 34.2 | 49.3 | 39.2 |  | 42.4 | 74.9 | 26 |  |  |  |  |  |  |
| COC(=O)CC[C@@H](C)[C@H]1CC[C@H]2[C@@H]3CC[C@@H]4CC5(CC[C@]4(C)[C@H]3C[C@H](OC(C)=O)[C@]12C)OOC1(CCC(C)CC1)OO5 (stereo in doubt; 3c) |  |  |  |  |  |  | 62.9 | 38.3 | 80.3 | 38 | 50.8 | 77.3 |  |
| CC(=O)O[C@H]1C[C@H]2[C@@H](CC[C@@H]3CC4(CC[C@@]32C)OOC2(CCC(C)CC2)OO4)[C@@H]2CC[C@H]([C@H](C)CCC(=O)O)[C@@]12C (stereo in doubt; 4b) |  | 84.8 | 11.6 | 17.1 | 19.9 | 47 |  | 12.1 |  |  |  |  |  |
| CC(=O)O[C@H]1C[C@H]2[C@@H](CC[C@@H]3CC4(CC[C@@]32C)OOC2(CCC(C)CC2)OO4)[C@@H]2CC[C@H]([C@H](C)CCC(=O)O)[C@@]12C (stereo in doubt; 4c) |  |  |  |  |  |  | 31.7 | 42.2 | 89.7 | 19.2 | 31.8 | 93 |  |
| CC(=O)O[C@H]1C[C@H]2[C@@H](CC[C@@H]3CC4(CC[C@@]32C)OOC2(CCC(C)CC2)OO4)[C@@H]2CC[C@H]([C@H](C)CCC(N)=O)[C@@]12C (stereo in doubt; 13) |  |  |  |  |  |  | 31.4 | 19.4 | 118 | 22.9 | 28 | 53.5 |  |
| CCCNC(=O)CC[C@@H](C)[C@H]1CC[C@H]2[C@@H]3CC[C@@H]4CC5(CC[C@]4(C)[C@H]3C[C@H](OC(C)=O)[C@]12C)OOC1(CCC(C)CC1)OO5 (stereo in doubt; 14) |  | 30.5 |  | 20.2 |  |  |  | 10.1 |  | 9.81 | 12.3 | 23.4 |  |
| CCCNC(=O)CC[C@@H](C)[C@H]1CC[C@H]2[C@@H]3CC[C@@H]4CC5(CC[C@]4(C)[C@H]3C[C@H](OC(C)=O)[C@]12C)OOC1(CCC(C)CC1)OO5 (stereo in doubt; 15) |  |  |  |  |  |  | 39.3 | 33.8 | 53.7 | 29.3 | 34.1 | 50.7 | GI50 (NCI; Homo sapiens, NCI): 62 nM; GI50 (LOX IMVI; Homo sapiens, LOX IMVI, 48 h): 116 nM; LC50 (concentration killing 50% of cells) (LOX IMVI; Homo sapiens, LOX IMVI, 48 h): 1680 nM; TGI (LOX IMVI; Homo sapiens, LOX IMVI, 48 h): 391 nM; GI50 (DU-145): 663 nM; LC50 (concentration killing 50% of cells) (DU-145): 3910 nM; TGI (DU-145): 1610 nM; GI50 (CAKI-1): 62.2 nM; TGI (CAKI-1): 163 nM; CC50 (CAKI-1): 429 nM; GI50 (HOP-92): 134 nM; LC50 (concentration killing 50% of cells) (HOP-92): 4530 nM; TGI (HOP-92): 873 nM; GI50 (UO-31): 122 nM; TGI (UO-31): 329 nM |
| CC1CCC2(CC1)OOC1(CC[C@@]3(C)[C@H](CC[C@@H]4[C@@H]3C[C@H](O)[C@]3(C)[C@@H]([C@H](C)CCC(=O)NCCN(C)C)CC[C@@H]43)C1)OO2 (stereo in doubt; 16a) |  |  |  |  |  |  |  |  |  |  |  |  | GI50 (NCI): 15 nM; GI50 (786-0; Homo sapiens, 786-0, 48 h): 626 nM; TGI (786-0; Homo sapiens, 786-0, 48 h): 2040 nM; CC50 (786-0; Homo sapiens, 786-0, 48 h, read-out: LC50 (the source's name)): 5430 nM; TGI (HL-60): 1010 nM; GI50 (HL-60; Homo sapiens, HL-60, 48 h): 377 nM; CC50 (HL-60; read-out: LC50 (the source's name)): 6090 nM; GI50 (LOX IMVI; Homo sapiens, LOX IMVI, 48 h): 184 nM; LC50 (concentration killing 50% of cells) (LOX IMVI; Homo sapiens, LOX IMVI, 48 h): 774 nM; TGI (LOX IMVI; Homo sapiens, LOX IMVI, 48 h): 378 nM; GI50 (HOP-92): 228 nM; LC50 (concentration killing 50% of cells) (HOP-92): 973 nM; TGI (HOP-92): 471 nM; LC50 (concentration killing 50% of cells) (CCRF-CEM): > 10000 nM; GI50 (CCRF-CEM; Homo sapiens, CCRF-CEM, 48 h): 257 nM; TGI (CCRF-CEM; Homo sapiens, CCRF-CEM, 48 h): 539 nM; GI50 (UO-31): 206 nM; LC50 (UO-31): 864 nM; TGI (UO-31): 421 nM |
| CC(=O)O[C@H]1C[C@H]2[C@@H](CC[C@@H]3CC4(CC[C@@]32C)OOC2(CCC(C)CC2)OO4)[C@@H]2CC[C@H]([C@H](C)CCC(=O)NCCN(C)C)[C@@]12C (stereo in doubt; 17) |  |  |  |  |  |  | 148 | 136 | 155 | 104 | 136 | 153 | GI50 (NCI; Homo sapiens, NCI): < 5 nM; GI50 (786-0): 81.3 nM; TGI (786-0): 149 nM; LC50 (concentration killing 50% of cells) (LOX IMVI): 56.4 nM; TGI (LOX IMVI): 5.18 nM; GI50 (CAKI-1): 602 nM; TGI (CAKI-1): 1400 nM; CC50 (CAKI-1): 3250 nM; GI50 (ACHN): 439 nM; LC50 (concentration killing 50% of cells) (ACHN): 2300 nM; TGI (ACHN): 1050 nM |
| CC(=O)O[C@H]1C[C@H]2[C@@H](CC[C@@H]3CC4(CC[C@@]32C)OOC2(CCC(C)CC2)OO4)[C@@H]2CC[C@H]([C@H](C)CCC(=O)Nc3ccccc3)[C@@]12C (stereo in doubt; 18) |  | 38.9 |  |  |  |  | 33.7 | 23.1 |  | 23.3 | 32.9 | 42.7 |  |
| CC(=O)O[C@H]1C[C@H]2[C@@H](CC[C@@H]3CC4(CC[C@@]32C)OOC2(CCC(C)CC2)OO4)[C@@H]2CC[C@H]([C@H](C)CCC(=O)Nc3ccccc3)[C@@]12C (stereo in doubt; 19) |  |  |  |  |  |  | 77.5 | 50.8 | 76.9 | 50 | 66.8 | 109 | GI50 (NCI; Homo sapiens, NCI): < 5 nM; GI50 (HOP-92): < 5 nM; LC50 (concentration killing 50% of cells) (HOP-92): 15200 nM; TGI (HOP-92): 130 nM |
| CC(=O)O[C@H]1C[C@H]2[C@@H]([C@H](OC(C)=O)C[C@@H]3CC4(CC[C@@]32C)OOC2(CCC(C)CC2)OO4)[C@@H]2CC[C@H]([C@H](C)CCC(=O)Nc3ccccc3)[C@@]12C (stereo in doubt; 20) |  |  |  |  |  |  | 8.07 | 7.86 | 10.1 | 5.48 | 6.24 | 11 | GI50 (NCI): 160 nM; LC50 (concentration killing 50% of cells) (LOX IMVI): 1890 nM; GI50 (LOX IMVI; Homo sapiens, LOX IMVI, 48 h): 161 nM; TGI (LOX IMVI; Homo sapiens, LOX IMVI, 48 h): 417 nM |
| C[C@@H]1CC[C@H]2[C@@H](C)C(=O)O[C@@H]3O[C@@]4(C)CC[C@@H]1[C@]32OO4 [ARTEMISININ] | 6.7 | 11.5 | 9 | 12.8 | 13 | 17.4 |  |  |  |  |  |  |  |
| CCN(CC)CCCC(C)Nc1ccnc2cc(Cl)ccc12 (centres undefined) [CHLOROQUINE] |  | 349 |  | 13.7 |  |  |  |  |  |  |  |  |  |
| O[C@@H](c1cc(C(F)(F)F)nc2c(C(F)(F)F)cccc12)[C@H]1CCCCN1 [MEFLOQUINE] |  | 8.41 |  | 21.6 |  | 65.7 |  |  |  |  |  |  |  |

— ChEMBL document CHEMBL1148828, “Deoxycholic acid-derived tetraoxane antimalarials and antiproliferatives(1)” (J Med Chem, 2007)
